From US20110015226A1, “Treatment of Energy Utilization Disease” (SUMMIT CORPORATION PLC, priority 2008, published 2011)
Like-named read-outs stand apart in the source and are kept apart here.

Columns and labels:
Type in all cases: biochemical
α-D-glucosidase (Rice) = target: T1, α-D-glucosidase (Rice) (Oryza sativa subsp. japonica, UniProt Q653V7); assay: Glycosidase inhibition: α-D-glucosidase (Rice); conditions: for inhibition at 800 µM: compounds tested at 0.8 mM
T1 construct: purchased Sigma

[1] = target: T2, α-D-galactosidase Green coffee bean (Coffea arabica, UniProt Q42656); assay: Glycosidase inhibition: α-D-galactosidase Green coffee bean; conditions: compounds tested at 0.8 mM
T2 construct: α-D-galactosidase (Green coffee beans); purchased Sigma; host or cells: green coffee beans
From the text: (§1) The results tabulated below were obtained using commercially available glycosidases and p-nitrophenyl-substrates using standard methods described for example by Watson et al (1997) Phytochemistry 46 255-259. All enzymes and substrates were bought from Sigma. Enzyme and substrate solutions were made using sodium phosphate buffers at the pH optima values. The enzymes used were α-D-glucosidase Saccharomyces cerevisiae, Bacillus stearothermophilus, Oryzae sativa), β-D-glucosidase (Almond), α-D-mannosidase (Jack bean), α-D-galactosidase (Green coffee beans), β-D-galactosidase (Bovine liver), α-L-fucosidase (Bovine kidney), N-acetyl-β-D-glucosaminidase (Bovine kidney, Jack bean, Aspergillus oryzae), Naringinase (Penicillium decumbens) and amyloglucosidase (Aspergillus niger). All enzymes were used with the appropriate p-nitrophenyl substrates (5 mM). Amyloglucosidase activity was measured using amylopectin (0.1%) (Merck) mixed with sodium phosphate buffer, pH 4.5 in a glass bottle, and healed in a boiling water bath for 20 minutes to dissolve with released glucose measured using ‘Trinder’ glucose detection solution (Sigma).
(§2) All enzymes and para-nitrophenyl substrates were purchased from Sigma, with the exception of beta-mannosidase which came from Megazyme. Enzymes were assayed at 27° C. in 0.1M citric acid/0.2M disodium hydrogen phosphate buffers at the optimum pH for the enzyme. The incubation mixture consisted of 10 μl enzyme solution, 10 μl of 1 mg/ml aqueous solution of extract and 50 μl of the appropriate 5 mM para-nitrophenyl substrate made up in buffer at the optimum pH for the enzyme. The reactions were stopped by addition of 70 μl 0.4M glycine (pH 10.4) during the exponential phase of the reaction, which had been determined at the beginning using uninhibited assays in which water replaced inhibitor. Final absorbances were read at 405 nm using a Versamax microplate reader (Molecular Devices). Assays were carried out in triplicate, and the values given are means of the three replicates per assay. (See Watson, A. A., Nash, R. J., Wormald, M. R., Harvey, D. J., Dealler, S., Lees, E., Asano, N., Kizu, H., Kato, A., Griffiths, R. C., Cairns, A. J. and Fleet, G. W. J. (1997). Glycosidase-inhibiting pyrrolidine alkaloids from Hyacinthoides non-scripta. Phytochemistry 46 (2): 255-259.)

[2] = target: T3, α-L-fucosidase Bovine kidney (Bos taurus, UniProt Q2KIM0); assay: Glycosidase inhibition: α-L-fucosidase Bovine kidney; conditions: compounds tested at 0.8 mM
T3 construct: α-L-fucosidase (Bovine kidney); purchased Sigma; host or cells: bovine kidney
T3 sequence (Q2KIM0 23-468): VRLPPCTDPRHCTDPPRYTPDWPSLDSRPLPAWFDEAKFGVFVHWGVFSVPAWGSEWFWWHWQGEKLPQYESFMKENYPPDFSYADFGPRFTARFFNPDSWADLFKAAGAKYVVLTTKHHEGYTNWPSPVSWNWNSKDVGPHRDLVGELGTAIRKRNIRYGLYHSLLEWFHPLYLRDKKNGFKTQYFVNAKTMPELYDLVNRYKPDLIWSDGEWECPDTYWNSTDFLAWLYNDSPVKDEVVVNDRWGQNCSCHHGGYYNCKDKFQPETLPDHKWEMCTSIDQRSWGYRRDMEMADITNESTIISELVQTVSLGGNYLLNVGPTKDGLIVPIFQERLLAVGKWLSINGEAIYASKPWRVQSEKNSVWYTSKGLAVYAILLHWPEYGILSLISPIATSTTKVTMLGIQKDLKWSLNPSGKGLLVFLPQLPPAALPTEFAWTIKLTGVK

[3] = target: T4, α-D-mannosidase Jack bean (Canavalia ensiformis, UniProt C0HJB3); assay: Glycosidase inhibition: α-D-mannosidase Jack bean; conditions: compounds tested at 0.8 mM
T4 construct: α-D-mannosidase (Jack bean); purchased Sigma
T4 sequence (C0HJB3 1-981): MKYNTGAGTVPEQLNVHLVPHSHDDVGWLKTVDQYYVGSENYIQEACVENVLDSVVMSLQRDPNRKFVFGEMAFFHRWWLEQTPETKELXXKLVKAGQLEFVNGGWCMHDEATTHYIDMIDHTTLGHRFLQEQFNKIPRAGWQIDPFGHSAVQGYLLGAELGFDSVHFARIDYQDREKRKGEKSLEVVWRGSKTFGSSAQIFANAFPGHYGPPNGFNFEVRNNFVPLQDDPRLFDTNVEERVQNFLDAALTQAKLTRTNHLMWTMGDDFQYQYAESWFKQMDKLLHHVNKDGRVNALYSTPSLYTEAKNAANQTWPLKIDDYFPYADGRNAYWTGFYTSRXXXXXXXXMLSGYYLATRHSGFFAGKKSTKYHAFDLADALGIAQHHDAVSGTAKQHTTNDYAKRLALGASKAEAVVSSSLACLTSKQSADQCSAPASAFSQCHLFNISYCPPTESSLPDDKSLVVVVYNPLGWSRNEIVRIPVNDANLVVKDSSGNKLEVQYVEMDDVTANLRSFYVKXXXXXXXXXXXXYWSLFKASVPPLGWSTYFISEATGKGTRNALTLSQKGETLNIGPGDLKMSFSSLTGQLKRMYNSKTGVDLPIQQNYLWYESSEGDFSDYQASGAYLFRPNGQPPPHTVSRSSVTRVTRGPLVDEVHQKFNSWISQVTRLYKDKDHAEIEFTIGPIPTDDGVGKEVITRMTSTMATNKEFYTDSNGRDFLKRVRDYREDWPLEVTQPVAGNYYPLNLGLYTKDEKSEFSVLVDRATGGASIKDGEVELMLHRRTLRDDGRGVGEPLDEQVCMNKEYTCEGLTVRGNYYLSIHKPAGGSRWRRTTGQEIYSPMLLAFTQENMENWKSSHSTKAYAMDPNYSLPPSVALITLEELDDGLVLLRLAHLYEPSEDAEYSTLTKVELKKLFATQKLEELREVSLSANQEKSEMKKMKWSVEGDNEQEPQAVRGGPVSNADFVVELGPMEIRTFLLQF

[4] = target: T5, Amyloglucosidase Aspergillus niger (Aspergillus niger, UniProt P69328); assay: Glycosidase inhibition: Amyloglucosidase Aspergillus niger; conditions: compounds tested at 0.8 mM
T5 construct: purchased Sigma
From the text: as §1, §2

T1 sequence (Q653V7 34-885): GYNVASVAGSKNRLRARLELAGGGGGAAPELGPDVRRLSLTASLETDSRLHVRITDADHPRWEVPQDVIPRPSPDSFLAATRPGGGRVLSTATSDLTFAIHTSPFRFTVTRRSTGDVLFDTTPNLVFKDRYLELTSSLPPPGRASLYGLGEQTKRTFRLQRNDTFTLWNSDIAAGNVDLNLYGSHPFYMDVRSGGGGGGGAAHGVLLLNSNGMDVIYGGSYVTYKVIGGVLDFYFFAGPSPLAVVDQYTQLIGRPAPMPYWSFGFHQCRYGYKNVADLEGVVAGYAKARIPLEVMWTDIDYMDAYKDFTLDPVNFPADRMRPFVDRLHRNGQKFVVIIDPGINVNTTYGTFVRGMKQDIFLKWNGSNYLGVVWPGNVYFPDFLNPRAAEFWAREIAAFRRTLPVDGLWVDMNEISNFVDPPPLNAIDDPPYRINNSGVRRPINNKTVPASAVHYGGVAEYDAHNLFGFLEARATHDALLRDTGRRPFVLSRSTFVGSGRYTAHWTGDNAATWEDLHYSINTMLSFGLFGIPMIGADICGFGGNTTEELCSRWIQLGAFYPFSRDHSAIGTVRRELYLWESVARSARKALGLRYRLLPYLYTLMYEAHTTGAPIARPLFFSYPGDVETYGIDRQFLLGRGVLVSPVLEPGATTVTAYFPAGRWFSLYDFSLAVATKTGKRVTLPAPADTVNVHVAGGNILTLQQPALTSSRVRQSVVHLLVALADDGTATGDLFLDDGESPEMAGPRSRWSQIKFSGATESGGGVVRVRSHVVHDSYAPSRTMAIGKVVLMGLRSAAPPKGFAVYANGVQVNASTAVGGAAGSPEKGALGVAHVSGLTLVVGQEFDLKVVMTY
T2 sequence (Q42656 16-378): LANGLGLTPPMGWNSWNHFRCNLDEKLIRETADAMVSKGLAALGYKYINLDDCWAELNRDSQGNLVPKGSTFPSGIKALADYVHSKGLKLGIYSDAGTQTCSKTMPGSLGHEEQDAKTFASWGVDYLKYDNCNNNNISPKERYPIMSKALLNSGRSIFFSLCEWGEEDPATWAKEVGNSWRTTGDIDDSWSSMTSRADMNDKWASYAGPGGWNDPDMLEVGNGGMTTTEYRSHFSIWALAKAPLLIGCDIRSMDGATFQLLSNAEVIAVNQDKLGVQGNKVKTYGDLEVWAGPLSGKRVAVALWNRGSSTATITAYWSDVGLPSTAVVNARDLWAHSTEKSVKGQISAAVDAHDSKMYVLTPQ
T5 sequence (P69328 25-640): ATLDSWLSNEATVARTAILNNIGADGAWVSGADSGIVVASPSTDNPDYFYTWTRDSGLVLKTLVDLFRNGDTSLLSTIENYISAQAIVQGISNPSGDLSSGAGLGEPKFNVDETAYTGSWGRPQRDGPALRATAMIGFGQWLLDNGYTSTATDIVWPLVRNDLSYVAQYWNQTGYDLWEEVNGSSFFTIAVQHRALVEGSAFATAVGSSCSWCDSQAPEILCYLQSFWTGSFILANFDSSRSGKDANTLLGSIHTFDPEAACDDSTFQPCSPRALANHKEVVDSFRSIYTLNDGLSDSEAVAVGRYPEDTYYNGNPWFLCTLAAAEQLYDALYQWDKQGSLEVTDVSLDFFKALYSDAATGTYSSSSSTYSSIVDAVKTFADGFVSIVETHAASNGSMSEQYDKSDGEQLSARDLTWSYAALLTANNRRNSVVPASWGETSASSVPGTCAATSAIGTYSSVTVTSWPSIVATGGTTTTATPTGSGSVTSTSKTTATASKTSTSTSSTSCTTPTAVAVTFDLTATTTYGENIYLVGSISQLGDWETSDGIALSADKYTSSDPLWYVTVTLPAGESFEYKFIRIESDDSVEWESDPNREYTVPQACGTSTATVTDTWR

Row | Compound | inhibition at 800 µM (α-D-glucosidase (Rice)) [%] | inhibition at 800 µM [1] [%] | inhibition at 800 µM [2] [%] | inhibition at 800 µM [3] [%] | inhibition at 800 µM [4] [%] | IC50 (α-D-glucosidase (Rice); read-out: IC50, α-D-glucosidase (Rice)) [nM] | IC50 (α-D-glucosidase (Rice)) [nM] | % inhibition, α-D-mannosidase Jack bean [3] [%]
1 | CCCCOC(=O)[C@@H]1[C@@H](O)[C@H](O)[C@@H](O)CN1CCCC [Compound T2, (2S,3R,4R,5S)-Butyl 1-butyl-3,4,5-trihydroxypiperidine-2-carboxylate] | < 50 | < 50 | < 50 | < 50 | < 50 |  |  | 
2 | O=C(O)CCN1C[C@H](O)[C@@H](O)[C@H](O)[C@H]1CO [Compound T1] | 99.1 | < 50 | < 50 | < 50 | 53 | 2400 |  | 
3 | O=C(O)CN1[C@H](CO)[C@@H](O)[C@H](O)[C@H]1CO [Compound S2, 2-((2R,3R,4R,5R)-3,4-Dihydroxy-2,5-bis(hydroxymethyl)pyrrolidin-1-yl)acetic acid] | < 50 | < 50 | < 50 | < 50 | < 50 |  |  | 
4 | OC[C@H]1NC[C@H](O)[C@@H](O)[C@@H]1O [DNJ, 1-deoxynojirimycin, reference compound] |  | < 10 | < 10 | 26 | 32 |  | 900 | 27
5 | O=C(O)[C@H]1NC[C@H](O)[C@@H](O)[C@@H]1O [Compound G2, 2S,3R,4R,5S-trihydroxypiperidine-2-carboxylic acid] | 55 | < 10 | < 10 | 29 | < 10 |  |  | 
